Assay results published in PubChem BioAssay (NCI).
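Growth conditions: 96-well plates. Treatment: test compound, 48 hours, 5 concentrations. Analysis: linear interpolation between bracketing concentrations; unreached endpoints set to highest concentration. TGI is the concentration that stops growth completely.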

Experiments:
Assay in all cases: inhibition of tumour cell growth, NCI panel, 48 h
[1] = test system: 786-0 renal
[2] = test system: A498 renal
[3] = test system: A549 NSCLC
[4] = test system: ACHN renal
[5] = test system: CAKI-1 renal
[6] = test system: CCRF-CEM leukemia
[7] = test system: COLO 205 colon
[8] = test system: DLD-1 colon
[9] = test system: DMS 114 small cell lung
[10] = test system: DMS 273 small cell lung
[11] = test system: DU-145 prostate
[12] = test system: EKVX NSCLC
[13] = test system: HCC-2998 colon
[14] = test system: HCT-116 colon
[15] = test system: HCT-15 colon
[16] = test system: HL-60(TB) leukemia
[17] = test system: HOP-62 NSCLC
[18] = test system: HOP-92 NSCLC
[19] = test system: HS 578T breast
[20] = test system: HT29 colon
[21] = test system: IGROV1 ovarian
[22] = test system: K-562 leukemia
[23] = test system: KM12 colon
[24] = test system: LOX IMVI melanoma
[25] = test system: M14 melanoma
[26] = test system: MALME-3M melanoma
[27] = test system: MCF7 breast
[28] = test system: MDA-MB-231 breast
[29] = test system: MDA-MB-435
[30] = test system: MDA-N
[31] = test system: MOLT-4 leukemia
[32] = test system: NCI-H226 lung
[33] = test system: NCI-H23 lung
[34] = test system: NCI-H460 lung
[35] = test system: NCI-H522 lung
[36] = test system: NCI/ADR-RES ovarian
[37] = test system: OVCAR-3 ovarian
[38] = test system: OVCAR-4 ovarian
[39] = test system: OVCAR-5 ovarian
[40] = test system: OVCAR-8 ovarian
[41] = test system: PC-3 prostate
[42] = test system: RPMI-8226 leukemia
[43] = test system: RXF 393 renal
[44] = test system: RXF-631 renal
[45] = test system: SF-268 CNS
[46] = test system: SF-295 CNS
[47] = test system: SF-539 CNS
[48] = test system: SK-MEL-2 melanoma
[49] = test system: SK-MEL-28 melanoma
[50] = test system: SK-MEL-5 melanoma
[51] = test system: SK-OV-3 ovarian
[52] = test system: SN12C renal
[53] = test system: SNB-19 CNS
[54] = test system: SNB-75 CNS
[55] = test system: SNB-78 CNS
[56] = test system: SR leukemia
[57] = test system: SW-620 colon
[58] = test system: T-47D breast
[59] = test system: TK-10 renal
[60] = test system: U251 CNS
[61] = test system: UACC-257 melanoma
[62] = test system: UACC-62 melanoma
[63] = test system: UO-31 renal
[64] = test system: BT-549 breast
[65] = test system: KM20L2 colon
[66] = test system: LXFL 529 NSCLC
[67] = test system: M19-MEL melanoma
[68] = test system: HOP-18 NSCLC

Structure (SMILES): Cc1nc2c(n1-c1ccc(Br)cc1)C(=O)c1ccccc1C2=O
- TGI [1]: > 71.1 µM
- TGI [2]: > 100 µM
- TGI [3]: > 100 µM
- TGI [4]: > 100 µM
- TGI [5]: > 100 µM
- TGI [6]: > 100 µM
- TGI [7]: > 100 µM
- TGI [8]: > 100 µM
- TGI [9]: > 100 µM
- TGI [10]: > 100 µM
- TGI [11]: > 100 µM
- TGI [12]: > 100 µM
- TGI [13]: > 100 µM
- TGI [14]: > 74 µM
- TGI [15]: > 100 µM
- TGI [16]: 18 µM
- TGI [17]: > 100 µM
- TGI [18]: 66 µM
- TGI [19]: 50 µM
- TGI [20]: > 100 µM
- TGI [21]: > 64.4 µM
- TGI [22]: > 100 µM
- TGI [23]: > 100 µM
- TGI [24]: > 100 µM
- TGI [25]: > 100 µM
- TGI [26]: > 67.2 µM
- TGI [27]: > 100 µM
- TGI [28]: > 100 µM
- TGI [29]: 23.3 µM
- TGI [30]: > 100 µM
- TGI [31]: > 100 µM
- TGI [32]: > 100 µM
- TGI [33]: > 100 µM
- TGI [34]: > 40.9 µM
- TGI [35]: > 79.2 µM
- TGI [36]: > 100 µM
- TGI [37]: 31.3 µM
- TGI [38]: > 100 µM
- TGI [39]: > 100 µM
- TGI [40]: > 70.1 µM
- TGI [41]: 51 µM
- TGI [42]: > 100 µM
- TGI [43]: 69.9 µM
- TGI [44]: > 100 µM
- TGI [45]: > 100 µM
- TGI [46]: > 59.6 µM
- TGI [47]: > 65.2 µM
- TGI [48]: > 100 µM
- TGI [49]: > 100 µM
- TGI [50]: > 100 µM
- TGI [51]: 97 µM
- TGI [52]: > 100 µM
- TGI [53]: > 39.4 µM
- TGI [54]: > 62.1 µM
- TGI [55]: > 100 µM
- TGI [56]: > 100 µM
- TGI [57]: > 100 µM
- TGI [58]: > 100 µM
- TGI [59]: > 100 µM
- TGI [60]: > 43.6 µM
- TGI [61]: > 100 µM
- TGI [62]: > 85.1 µM
- TGI [63]: > 40.6 µM

Structure (SMILES): CCN(CCCl)CCCCNc1c2ccccc2nc2ccc(OC)cc12
- TGI [1]: 1.56 µM
- TGI [2]: 0.875 µM
- TGI [3]: 2.27 µM
- TGI [4]: 1.72 µM
- TGI [64]: 7.41 µM
- TGI [5]: 1.89 µM
- TGI [7]: 3.63 µM
- TGI [9]: 1.83 µM
- TGI [10]: 1.44 µM
- TGI [11]: 1.74 µM
- TGI [12]: 3.15 µM
- TGI [14]: 1.29 µM
- TGI [15]: 5.43 µM
- TGI [17]: 3.71 µM
- TGI [18]: 0.886 µM
- TGI [19]: > 100 µM
- TGI [20]: 3.31 µM
- TGI [21]: 2.05 µM
- TGI [23]: 1.82 µM
- TGI [65]: 3.35 µM
- TGI [24]: 1.52 µM
- TGI [66]: 1.76 µM
- TGI [25]: 2.92 µM
- TGI [67]: 1.68 µM
- TGI [26]: 2.89 µM
- TGI [27]: 0.935 µM
- TGI [28]: 3.99 µM
- TGI [29]: 2.12 µM
- TGI [30]: 2.96 µM
- TGI [32]: 1.08 µM
- TGI [33]: 1.96 µM
- TGI [34]: 1.39 µM
- TGI [35]: 1.43 µM
- TGI [36]: > 100 µM
- TGI [37]: 3.78 µM
- TGI [38]: 2.79 µM
- TGI [39]: 2.96 µM
- TGI [40]: 1.94 µM
- TGI [41]: 1.14 µM
- TGI [42]: 4.08 µM
- TGI [43]: 1.7 µM
- TGI [44]: 4.51 µM
- TGI [45]: 1.36 µM
- TGI [46]: 3.64 µM
- TGI [47]: 4.69 µM
- TGI [48]: 2.48 µM
- TGI [49]: 8.36 µM
- TGI [50]: 1.98 µM
- TGI [51]: 2.77 µM
- TGI [52]: 1.61 µM
- TGI [53]: 3.34 µM
- TGI [54]: 2.14 µM
- TGI [55]: 4.07 µM
- TGI [56]: 1.55 µM
- TGI [57]: 1.63 µM
- TGI [58]: 1.5 µM
- TGI [59]: 5.22 µM
- TGI [60]: 1.72 µM
- TGI [61]: 10.5 µM
- TGI [62]: 1.59 µM
- TGI [63]: 4.51 µM

Structure (SMILES): CC(C)(C)c1ccc2c(c1)S(=O)(=O)Nc1cccc(c1)NS(=O)(=O)c1cc(C(C)(C)C)ccc1OCCOCCO2
- TGI [1]: > 100 µM
- TGI [2]: > 100 µM
- TGI [3]: > 100 µM
- TGI [4]: > 100 µM
- TGI [5]: > 100 µM
- TGI [7]: > 100 µM
- TGI [8]: > 100 µM
- TGI [9]: > 100 µM
- TGI [10]: > 100 µM
- TGI [12]: > 100 µM
- TGI [13]: > 100 µM
- TGI [14]: > 100 µM
- TGI [15]: > 100 µM
- TGI [68]: > 100 µM
- TGI [17]: > 100 µM
- TGI [18]: > 100 µM
- TGI [20]: > 100 µM
- TGI [21]: > 100 µM
- TGI [22]: > 100 µM
- TGI [23]: > 100 µM
- TGI [24]: > 100 µM
- TGI [25]: > 100 µM
- TGI [67]: > 100 µM
- TGI [26]: > 100 µM
- TGI [31]: > 100 µM
- TGI [32]: > 100 µM
- TGI [33]: > 100 µM
- TGI [34]: > 100 µM
- TGI [37]: > 100 µM
- TGI [38]: > 100 µM
- TGI [39]: > 100 µM
- TGI [40]: > 100 µM
- TGI [42]: > 100 µM
- TGI [43]: > 100 µM
- TGI [44]: > 100 µM
- TGI [45]: > 100 µM
- TGI [46]: > 100 µM
- TGI [47]: > 100 µM
- TGI [48]: > 100 µM
- TGI [49]: > 100 µM
- TGI [50]: > 100 µM
- TGI [51]: > 100 µM
- TGI [52]: > 100 µM
- TGI [53]: > 100 µM
- TGI [54]: > 100 µM
- TGI [55]: > 100 µM
- TGI [57]: > 100 µM
- TGI [59]: > 100 µM
- TGI [60]: > 100 µM
- TGI [61]: > 100 µM
- TGI [62]: > 100 µM
- TGI [63]: > 100 µM

Structure (SMILES): O=S1[C@H](c2ccccc2)c2c(-c3ccccc3)sc(-c3ccccc3)c2[C@@H]1c1ccccc1 (some centres undefined)
- TGI [1]: > 100 µM
- TGI [3]: > 100 µM
- TGI [4]: > 100 µM
- TGI [5]: > 100 µM
- TGI [6]: > 100 µM
- TGI [7]: > 100 µM
- TGI [8]: > 100 µM
- TGI [9]: > 100 µM
- TGI [10]: > 100 µM
- TGI [12]: > 100 µM
- TGI [13]: > 100 µM
- TGI [15]: > 100 µM
- TGI [16]: 40.6 µM
- TGI [68]: > 100 µM
- TGI [17]: > 100 µM
- TGI [18]: 67.9 µM
- TGI [20]: > 100 µM
- TGI [21]: > 100 µM
- TGI [22]: > 100 µM
- TGI [23]: > 100 µM
- TGI [65]: > 100 µM
- TGI [24]: > 100 µM
- TGI [66]: > 100 µM
- TGI [25]: > 100 µM
- TGI [67]: > 100 µM
- TGI [26]: > 100 µM
- TGI [31]: > 100 µM
- TGI [33]: > 100 µM
- TGI [34]: > 100 µM
- TGI [35]: 27.2 µM
- TGI [37]: > 100 µM
- TGI [38]: > 100 µM
- TGI [39]: > 100 µM
- TGI [40]: > 100 µM
- TGI [42]: > 100 µM
- TGI [43]: > 100 µM
- TGI [44]: > 100 µM
- TGI [45]: > 100 µM
- TGI [46]: > 100 µM
- TGI [47]: > 100 µM
- TGI [48]: > 100 µM
- TGI [49]: > 100 µM
- TGI [50]: > 100 µM
- TGI [51]: > 100 µM
- TGI [52]: > 100 µM
- TGI [53]: > 100 µM
- TGI [54]: 87.9 µM
- TGI [57]: > 100 µM
- TGI [59]: > 100 µM
- TGI [60]: > 100 µM
- TGI [61]: > 100 µM
- TGI [62]: > 100 µM
- TGI [63]: > 100 µM
